This note sets out measurements from ChEMBL document CHEMBL3044608, “Synthesis and fungicidal activity of hydrazones containing 4-methylbenzo[d]thiazole moiety” (2012).

What all share (type): functional
The subject of one assay is Sclerotinia sclerotiorum. The assay can be described thus: microbe, parasite or virus in culture. The conditions noted are these: read-out: GI.
The subject of another assay is Phytophthora capsici. Description: microbe, parasite or virus in culture. The settings on record: read-out: GI.
For another assay, the system named is Alternaria alternata. The assay can be described thus: microbe, parasite or virus in culture. The conditions noted are these: read-out: GI.
In assay [1] the test system is Rhizoctonia solani. The assay can be described thus: microbe, parasite or virus in culture. The conditions noted are these: read-out: GI.
Description: Fungicidal activity against Rhizoctonia solani assessed as inhibition rate of circle mycelium growth at 500 ug/ml
Another assay deals with Ustilaginoidea. Description: microbe, parasite or virus in culture. The settings on record: read-out: GI.
The subject of the next assay is Botrytis cinerea. The assay can be described thus: microbe, parasite or virus in culture. The conditions noted are these: read-out: GI.
The next assay deals with Fusarium graminearum. Description: microbe, parasite or virus in culture. The settings on record: read-out: GI.
In assay [2] the test system is Rhizoctonia solani. The settings on record: at 400 µg/mL.
Description: Fungicidal activity against Rhizoctonia solani assessed as inhibition rate of circle mycelium growth at 400 ug/ml relative to control
For assay [3], the system named is Rhizoctonia solani. The settings on record: at 100 µg/mL.
Description: Fungicidal activity against Rhizoctonia solani assessed as inhibition rate of circle mycelium growth at 100 ug/ml relative to control
The subject of assay [4] is Rhizoctonia solani. The settings on record: at 200 µg/mL.
Description: Fungicidal activity against Rhizoctonia solani assessed as inhibition rate of circle mycelium growth at 200 ug/ml relative to control

SMILES strings stand for the structures.

Description for Alternaria alternata: Fungicidal activity against Alternaria alternata assessed as inhibition rate of circle mycelium growth at 500 ug/ml
Description for Botrytis cinerea: Fungicidal activity against Botryotinia fuckeliana assessed as inhibition rate of circle mycelium growth at 500 ug/ml
Description for Phytophthora capsici: Fungicidal activity against Phytophthora capsici assessed as inhibition rate of circle mycelium growth at 500 ug/ml
Description for Sclerotinia sclerotiorum: Fungicidal activity against Sclerotinia sclerotiorum assessed as inhibition rate of circle mycelium growth at 500 ug/ml
Description for Ustilaginoidea: Fungicidal activity against Ustilaginoidea oryzae assessed as inhibition rate of circle mycelium growth at 500 ug/ml

Regarding `Cc1cccc2sc(NN)nc12`, the inhibition of growth at 500 µg/mL with Sclerotinia sclerotiorum stood at 16.2%; with Phytophthora capsici it was 0%; in the assay with Alternaria alternata, 13.6%; in the assay with Rhizoctonia solani [1] it was 0%; in the assay on Ustilaginoidea, 0%; in the assay on Botrytis cinerea, 22.3%. In the assay on Fusarium graminearum, the inhibition of growth at 500 µg/mL worked out at 0%.

As to `C/C(=N\Nc1nc2c(C)cccc2s1)c1ccc(F)cc1`, the inhibition of growth at 500 µg/mL with Sclerotinia sclerotiorum was 28.1%; in the assay with Phytophthora capsici it was 0%; in the assay with Alternaria alternata it was 0%; in the assay with Rhizoctonia solani [1], 0%; with Ustilaginoidea, 0%; in the assay with Botrytis cinerea, 0%. Besides, the inhibition of growth at 500 µg/mL in the assay with Fusarium graminearum worked out at 0%.

Take `CC(C)=NNc1nc2c(C)cccc2s1`: the inhibition of growth at 500 µg/mL amounted to 59.4% in the assay with Sclerotinia sclerotiorum; 0% in the assay with Phytophthora capsici; 47.8% in the assay on Alternaria alternata; 0% with Rhizoctonia solani [1]; 20% with Ustilaginoidea; 70.8% with Botrytis cinerea. In the assay with Fusarium graminearum, the inhibition of growth at 500 µg/mL stood at 0%.

As for `CC/C(C)=N/Nc1nc2c(C)cccc2s1`, the inhibition of growth at 500 µg/mL in the assay on Sclerotinia sclerotiorum stood at 87.5%; in the assay on Phytophthora capsici, 0%; in the assay on Alternaria alternata, 47.8%; in the assay on Rhizoctonia solani [1] it was 90%; with Ustilaginoidea, 40%; in the assay with Botrytis cinerea, 70.8%. Moreover, the inhibition of growth at 500 µg/mL in the assay on Fusarium graminearum amounted to 0%.

For `C/C(=N\Nc1nc2c(C)cccc2s1)c1ccccc1`, the inhibition of growth at 500 µg/mL turned out to be 31.3% in the assay with Sclerotinia sclerotiorum; 0% with Phytophthora capsici; 21.7% with Alternaria alternata; 0% in the assay on Rhizoctonia solani [1]; 0% in the assay on Ustilaginoidea; 0% with Botrytis cinerea. In addition, in the assay with Fusarium graminearum, the inhibition of growth at 500 µg/mL was 0%.

`C/C(=N\Nc1nc2c(C)cccc2s1)c1c(F)cccc1F`: the inhibition of growth at 500 µg/mL in the assay on Sclerotinia sclerotiorum turned out to be 0%; in the assay on Phytophthora capsici, 0%; with Alternaria alternata, 0%; in the assay with Rhizoctonia solani [1], 95%; with Ustilaginoidea it was 0%; with Botrytis cinerea, 0%. Also, in the assay with Fusarium graminearum, the inhibition of growth at 500 µg/mL stood at 0%. Moreover, the Efficacy in the assay with Rhizoctonia solani [2] turned out to be 65%; with Rhizoctonia solani [3], 35%; in the assay on Rhizoctonia solani [4] it was 45%.

Turning to `C/C(=N\Nc1nc2c(C)cccc2s1)c1ccc(Cl)cc1`, the inhibition of growth at 500 µg/mL is 9.4% in the assay with Sclerotinia sclerotiorum; 0% in the assay with Phytophthora capsici; 0% with Alternaria alternata; 0% in the assay on Rhizoctonia solani [1]; 0% with Ustilaginoidea; 0% in the assay with Botrytis cinerea. For the same molecule, the inhibition of growth at 500 µg/mL with Fusarium graminearum is 0%.

As to `C/C(=N\Nc1nc2c(C)cccc2s1)c1ccc(C)cc1`, the inhibition of growth at 500 µg/mL in the assay with Sclerotinia sclerotiorum came out at 28.1%; with Phytophthora capsici it was 0%; in the assay with Alternaria alternata it was 0%; in the assay with Rhizoctonia solani [1], 30%; with Ustilaginoidea, 5%; with Botrytis cinerea, 0%. In addition, in the assay on Fusarium graminearum, the inhibition of growth at 500 µg/mL was determined as 0%.

On to `C/C(=N\Nc1nc2c(C)cccc2s1)c1ccc([N+](=O)[O-])cc1`, for which the inhibition of growth at 500 µg/mL stood at 0% with Sclerotinia sclerotiorum; 0% in the assay on Phytophthora capsici; 0% in the assay with Alternaria alternata; 90% in the assay with Rhizoctonia solani [1]; 0% in the assay with Ustilaginoidea; 0% in the assay with Botrytis cinerea. Besides, in the assay on Fusarium graminearum, the inhibition of growth at 500 µg/mL worked out at 0%.

Take `C/C(=N\Nc1nc2c(C)cccc2s1)c1cccc(Cl)c1`: the inhibition of growth at 500 µg/mL turned out to be 43.8% in the assay with Sclerotinia sclerotiorum; 0% in the assay with Phytophthora capsici; 0% in the assay with Alternaria alternata; 0% with Rhizoctonia solani [1]; 0% in the assay with Ustilaginoidea; 0% in the assay with Botrytis cinerea. For the same molecule, the inhibition of growth at 500 µg/mL in the assay with Fusarium graminearum was found to be 0%.

On to `COc1ccccc1/C(C)=N/Nc1nc2c(C)cccc2s1`, for which the inhibition of growth at 500 µg/mL in the assay on Sclerotinia sclerotiorum worked out at 3.1%; in the assay on Phytophthora capsici, 0%; in the assay on Alternaria alternata, 0%; with Rhizoctonia solani [1] it was 60%; with Ustilaginoidea it was 0%; with Botrytis cinerea it was 0%. The inhibition of growth at 500 µg/mL in the assay with Fusarium graminearum was 0%.

Take `COc1ccc(/C(C)=N/Nc2nc3c(C)cccc3s2)cc1`: the inhibition of growth at 500 µg/mL came out at 50% in the assay on Sclerotinia sclerotiorum; 0% with Phytophthora capsici; 30.4% with Alternaria alternata; 95% in the assay on Rhizoctonia solani [1]; 0% in the assay with Ustilaginoidea; 37.5% with Botrytis cinerea. For the same molecule, the inhibition of growth at 500 µg/mL with Fusarium graminearum stood at 0%. In addition, the Efficacy in the assay with Rhizoctonia solani [2] is given as 50%; with Rhizoctonia solani [3] it was 10%; in the assay with Rhizoctonia solani [4] it was 20%.

Regarding `C/C(=N\Nc1nc2c(C)cccc2s1)c1ccc(Br)cc1`, the inhibition of growth at 500 µg/mL was determined as 46.9% with Sclerotinia sclerotiorum; 0% in the assay with Phytophthora capsici; 0% with Alternaria alternata; 50% in the assay with Rhizoctonia solani [1]; 0% in the assay with Ustilaginoidea; 0% in the assay with Botrytis cinerea. Moreover, the inhibition of growth at 500 µg/mL in the assay on Fusarium graminearum was 0%.

As for `C/C(=N\Nc1nc2c(C)cccc2s1)C(C)C`, the inhibition of growth at 500 µg/mL in the assay on Sclerotinia sclerotiorum stood at 90.6%; in the assay on Phytophthora capsici it was 0%; with Alternaria alternata, 56.5%; in the assay with Rhizoctonia solani [1], 60%; in the assay with Ustilaginoidea, 5%; in the assay with Botrytis cinerea it was 70.8%. Also, the inhibition of growth at 500 µg/mL with Fusarium graminearum is 0%.

For the molecule `Cc1cccc2sc(NN=C3CCCC3)nc12`, the inhibition of growth at 500 µg/mL worked out at 62.5% in the assay with Sclerotinia sclerotiorum; 0% with Phytophthora capsici; 52.2% with Alternaria alternata; 85% in the assay with Rhizoctonia solani [1]; 25% in the assay on Ustilaginoidea; 70.8% with Botrytis cinerea. The inhibition of growth at 500 µg/mL with Fusarium graminearum was determined as 36.8%.

With `Cc1cccc2sc(NN=C3CCCCC3)nc12`, the inhibition of growth at 500 µg/mL in the assay with Sclerotinia sclerotiorum came out at 43.8%; with Phytophthora capsici, 0%; in the assay with Alternaria alternata it was 47.8%; in the assay on Rhizoctonia solani [1] it was 0%; in the assay on Ustilaginoidea it was 0%; in the assay with Botrytis cinerea, 66.7%. Also, in the assay with Fusarium graminearum, the inhibition of growth at 500 µg/mL was 0%.

Take `CCCC1COC(Cn2cncn2)(c2ccc(Cl)cc2Cl)O1` (stereo not drawn) [PROPICONAZOLE]: the inhibition of growth at 500 µg/mL in the assay with Sclerotinia sclerotiorum came to 87.5%; in the assay with Phytophthora capsici it was 0%; in the assay with Alternaria alternata it was 0%; in the assay on Rhizoctonia solani [1], 90%; in the assay on Ustilaginoidea, 0%; with Botrytis cinerea it was 0%. The inhibition of growth at 500 µg/mL with Fusarium graminearum came to 0%. Also, the Efficacy with Rhizoctonia solani [2] amounted to 90%; in the assay with Rhizoctonia solani [3], 40%; in the assay with Rhizoctonia solani [4], 60%.

Take `Cc1cccc2sc3nncn3c12` [TRICYCLAZOLE]: the inhibition of growth at 500 µg/mL was found to be 72.7% with Sclerotinia sclerotiorum; 27.8% in the assay with Phytophthora capsici; 0% with Alternaria alternata; 85% in the assay on Rhizoctonia solani [1]; 0% in the assay on Ustilaginoidea; 52.8% in the assay on Botrytis cinerea. In addition, the inhibition of growth at 500 µg/mL with Fusarium graminearum is 13.6%. Also, the Efficacy is on record as 57% in the assay on Rhizoctonia solani [2], 22% in the assay on Rhizoctonia solani [3] and 33% in the assay on Rhizoctonia solani [4].
